# Assay results from patent publication US11278563B2, “Rapid release pharmaceutical formulations containing algal cellulose” (priority 2016, dated 2022).
# Tests used:
# [1] = DSC melting enthalpy and degree of crystallinity of FFA in cellulose mixtures; format: physicochemical; conditions: degree of crystallinity of FFA from DSC melting enthalpy, about 10 wt % FFA, n = 3
# Experimental: Thermal analysis was performed with TA instrument (Model Q-2000) on both cellulose-drug mixtures and pure substances. Samples were placed inside hermetically sealed aluminium crucibles with punctured lids, in order to avoid overpressure caused by water evaporation. An empty pan was used as a reference. The analysis was conducted in the temperature range from −40° C. to 150° C. with a heating rate of 10° C. min^−1. N2 gas, at a flow of 50 mL min^−1, was applied during analysis. Initially the samples were cooled from room temperature to −40° C., then heated to 150° C. and finally cooled to 25° C. again. All of the samples were stored at ambient conditions for 24 hours prior to DSC measurements. For the heated cellulose-FFA mixtures the heating conditions were 120° C. for 2 hours.
# The measurements were performed in triplicate, and the estimated amount of drug in the mixtures was 10 wt %.
# [2] = Degree of drug crystallinity from weight normalized melting enthalpies (TGA heat flow); format: physicochemical
# Experimental: TGA was conducted on a Mettler TG50 apparatus (10 K min^−1; 35° C. to 20° C. above the melting point of the drug) on 10-20 mg samples in aluminium crucibles under a nitrogen atmosphere (60 mL min^−1). Both normal and heated 10% mixtures were analysed and compared to the pure crystalline substance of corresponding drug content, i.e. 1-2 mg. The temperature in the furnace was continuously monitored, and the heat flow curves were collected both for heating and cooling phase to record melting or re-crystallization events.
# The weight normalized enthalpies of melting observed in cellulose-drug mixtures were calculated using the STARe Excellence software (Mettler Toledo) and compared to the weight normalized enthalpy for the pure crystalline drug, to give a rough estimate of the degree of the drug crystallinity (“Crl”) as follows.
# [formula] where ΔHmelt is weight normalised melting enthalpy of the drug in a specific cellulose-drug blend [in Joules/g] and ΔHdrug is the melting enthalpy of a pure crystalline drug [in Joules/g]. X-Ray Diffraction (XRD)
compound,measurement,setting,value
"O=C(O)c1ccccc1Nc1cccc(C(F)(F)F)c1 [FFA, flufenamic acid]",CrlFFA.%,[1],100%
"COc1ccc2cc([C@H](C)C(=O)O)ccc2c1 [NAP, naproxen]",CrlNAP (%),[2]; melting event,100%
same,CrlNAP (%),[2]; recrystallisation event of pure NAP (NAP recryst.),76%
"CC(=O)[C@H]1CC[C@H]2[C@@H]3CCC4=CC(=O)CC[C@]4(C)[C@H]3CC[C@]12C [PRO, progesterone]",CrlPRO (%),[2]; melting event,100%
